Laboratory results reported in BindingDB's records for PubMed 20126400 (University of Oklahoma, 2010).

Assays:
Assay in all cases: Ray2010 Assay 74
[1] = target: T1, Vasopressin V1b receptor (Homo sapiens, UniProt P47901)
T1 sequence (P47901 whole entry): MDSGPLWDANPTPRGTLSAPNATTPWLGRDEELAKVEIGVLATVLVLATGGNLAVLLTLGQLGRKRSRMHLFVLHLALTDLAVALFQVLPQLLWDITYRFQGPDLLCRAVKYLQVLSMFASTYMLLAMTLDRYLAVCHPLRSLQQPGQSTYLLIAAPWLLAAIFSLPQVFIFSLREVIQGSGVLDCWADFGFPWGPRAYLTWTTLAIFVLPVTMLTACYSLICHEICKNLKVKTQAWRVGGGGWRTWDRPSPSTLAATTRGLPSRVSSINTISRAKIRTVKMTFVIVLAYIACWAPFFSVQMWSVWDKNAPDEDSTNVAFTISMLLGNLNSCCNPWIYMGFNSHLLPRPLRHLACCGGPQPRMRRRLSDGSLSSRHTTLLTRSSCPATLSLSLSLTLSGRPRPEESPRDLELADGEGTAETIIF
Description: (§1) Table S2 shows raw Ki data for the current study combined with data collected from the literature for the ten additional compounds.

[2] = target: Vasopressin V1a receptor (Homo sapiens, UniProt P37288)
Sequence of Vasopressin V1a receptor (P37288 whole entry): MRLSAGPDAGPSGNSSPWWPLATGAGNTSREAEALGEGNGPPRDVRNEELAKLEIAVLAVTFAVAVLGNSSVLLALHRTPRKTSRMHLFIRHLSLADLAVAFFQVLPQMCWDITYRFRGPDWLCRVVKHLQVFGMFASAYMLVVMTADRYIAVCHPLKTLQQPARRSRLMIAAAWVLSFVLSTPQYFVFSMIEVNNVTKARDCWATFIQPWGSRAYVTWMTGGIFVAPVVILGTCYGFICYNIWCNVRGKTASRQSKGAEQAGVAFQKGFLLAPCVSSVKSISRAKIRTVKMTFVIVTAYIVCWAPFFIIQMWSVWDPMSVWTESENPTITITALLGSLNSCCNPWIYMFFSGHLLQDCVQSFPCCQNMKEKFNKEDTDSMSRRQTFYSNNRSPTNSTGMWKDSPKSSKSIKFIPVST
Description: as §1

[3] = target: Histamine H1 receptor (Homo sapiens, UniProt P35367)
Sequence of Histamine H1 receptor (P35367 whole entry): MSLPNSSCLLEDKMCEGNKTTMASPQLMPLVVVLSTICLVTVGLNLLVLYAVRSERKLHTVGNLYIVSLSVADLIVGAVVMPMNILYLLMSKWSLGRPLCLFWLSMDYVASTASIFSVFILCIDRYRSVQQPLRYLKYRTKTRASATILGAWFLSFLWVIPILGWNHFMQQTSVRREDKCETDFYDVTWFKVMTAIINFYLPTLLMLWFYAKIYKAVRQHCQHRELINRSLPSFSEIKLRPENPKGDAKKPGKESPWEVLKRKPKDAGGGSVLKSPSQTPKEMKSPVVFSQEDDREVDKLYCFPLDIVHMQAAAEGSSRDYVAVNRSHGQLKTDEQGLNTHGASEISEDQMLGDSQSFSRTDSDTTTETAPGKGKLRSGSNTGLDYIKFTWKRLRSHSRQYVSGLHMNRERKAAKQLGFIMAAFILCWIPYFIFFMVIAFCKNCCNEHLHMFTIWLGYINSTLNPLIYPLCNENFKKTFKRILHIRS
Description: as §1

[4] = target: Nischarin (Homo sapiens, UniProt Q9Y2I1)
Sequence of Nischarin (Q9Y2I1 whole entry): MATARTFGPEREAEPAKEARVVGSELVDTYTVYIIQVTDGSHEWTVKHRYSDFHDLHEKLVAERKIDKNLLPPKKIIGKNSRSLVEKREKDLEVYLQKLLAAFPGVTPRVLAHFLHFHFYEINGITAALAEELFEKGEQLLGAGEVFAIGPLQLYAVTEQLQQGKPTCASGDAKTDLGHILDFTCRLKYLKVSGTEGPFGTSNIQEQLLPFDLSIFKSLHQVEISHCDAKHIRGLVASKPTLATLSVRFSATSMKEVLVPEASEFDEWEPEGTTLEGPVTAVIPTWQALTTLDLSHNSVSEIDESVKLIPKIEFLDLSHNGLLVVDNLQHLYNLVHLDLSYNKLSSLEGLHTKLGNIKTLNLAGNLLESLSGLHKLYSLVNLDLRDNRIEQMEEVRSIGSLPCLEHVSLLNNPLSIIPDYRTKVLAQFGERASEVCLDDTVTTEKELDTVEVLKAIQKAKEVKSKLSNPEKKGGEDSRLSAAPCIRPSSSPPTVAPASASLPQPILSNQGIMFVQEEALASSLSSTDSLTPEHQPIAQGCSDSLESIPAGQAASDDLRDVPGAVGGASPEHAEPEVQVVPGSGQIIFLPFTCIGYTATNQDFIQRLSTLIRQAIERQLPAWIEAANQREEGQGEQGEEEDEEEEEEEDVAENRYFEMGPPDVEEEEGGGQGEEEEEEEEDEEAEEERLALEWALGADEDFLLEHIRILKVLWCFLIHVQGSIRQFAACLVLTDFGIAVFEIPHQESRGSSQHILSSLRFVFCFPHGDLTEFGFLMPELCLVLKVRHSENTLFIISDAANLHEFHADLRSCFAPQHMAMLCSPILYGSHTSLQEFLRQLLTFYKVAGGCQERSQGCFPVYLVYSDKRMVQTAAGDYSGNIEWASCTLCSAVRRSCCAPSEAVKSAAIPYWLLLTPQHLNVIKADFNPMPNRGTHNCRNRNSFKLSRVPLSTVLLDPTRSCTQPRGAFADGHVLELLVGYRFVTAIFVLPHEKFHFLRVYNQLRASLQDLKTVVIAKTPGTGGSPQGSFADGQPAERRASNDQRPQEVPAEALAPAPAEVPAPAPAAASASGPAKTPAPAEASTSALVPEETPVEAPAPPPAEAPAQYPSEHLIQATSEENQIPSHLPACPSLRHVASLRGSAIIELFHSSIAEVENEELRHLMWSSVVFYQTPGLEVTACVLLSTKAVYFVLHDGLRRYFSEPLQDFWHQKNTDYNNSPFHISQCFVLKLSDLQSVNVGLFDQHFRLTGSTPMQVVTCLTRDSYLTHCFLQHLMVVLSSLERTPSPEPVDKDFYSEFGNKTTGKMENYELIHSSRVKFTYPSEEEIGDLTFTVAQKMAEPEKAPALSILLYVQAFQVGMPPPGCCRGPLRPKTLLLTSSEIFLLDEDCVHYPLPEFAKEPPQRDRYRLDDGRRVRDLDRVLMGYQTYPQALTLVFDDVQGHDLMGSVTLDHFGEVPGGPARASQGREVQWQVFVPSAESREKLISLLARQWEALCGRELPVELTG
Description: as §1

[5] = target: Sigma non-opioid intracellular receptor 1 (Homo sapiens, UniProt Q99720)
Sequence of Sigma non-opioid intracellular receptor 1 (Q99720 whole entry): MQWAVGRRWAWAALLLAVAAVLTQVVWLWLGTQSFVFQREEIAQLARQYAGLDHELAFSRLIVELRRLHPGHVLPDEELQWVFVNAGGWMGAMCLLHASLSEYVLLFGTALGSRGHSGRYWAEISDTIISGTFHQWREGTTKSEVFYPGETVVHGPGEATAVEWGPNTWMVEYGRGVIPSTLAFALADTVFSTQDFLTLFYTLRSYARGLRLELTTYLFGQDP
Description: as §1

[6] = target: 5-hydroxytryptamine receptor 7 (Homo sapiens, UniProt P34969)
Sequence of 5-hydroxytryptamine receptor 7 (P34969 whole entry): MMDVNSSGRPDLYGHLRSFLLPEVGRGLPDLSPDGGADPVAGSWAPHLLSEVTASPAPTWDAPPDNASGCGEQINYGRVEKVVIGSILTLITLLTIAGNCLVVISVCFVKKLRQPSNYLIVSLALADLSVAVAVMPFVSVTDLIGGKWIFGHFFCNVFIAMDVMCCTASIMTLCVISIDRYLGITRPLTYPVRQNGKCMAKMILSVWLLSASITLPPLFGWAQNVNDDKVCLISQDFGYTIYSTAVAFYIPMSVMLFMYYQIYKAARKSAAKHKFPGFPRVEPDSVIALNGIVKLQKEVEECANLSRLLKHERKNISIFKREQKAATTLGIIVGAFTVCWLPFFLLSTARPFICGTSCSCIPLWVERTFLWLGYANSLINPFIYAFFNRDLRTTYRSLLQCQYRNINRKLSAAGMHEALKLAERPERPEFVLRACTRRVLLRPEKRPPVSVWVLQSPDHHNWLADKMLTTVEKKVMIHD
Description: as §1

[7] = target: T2, Alpha-2C adrenergic receptor (Homo sapiens, UniProt P18825)
T2 sequence (P18825 whole entry): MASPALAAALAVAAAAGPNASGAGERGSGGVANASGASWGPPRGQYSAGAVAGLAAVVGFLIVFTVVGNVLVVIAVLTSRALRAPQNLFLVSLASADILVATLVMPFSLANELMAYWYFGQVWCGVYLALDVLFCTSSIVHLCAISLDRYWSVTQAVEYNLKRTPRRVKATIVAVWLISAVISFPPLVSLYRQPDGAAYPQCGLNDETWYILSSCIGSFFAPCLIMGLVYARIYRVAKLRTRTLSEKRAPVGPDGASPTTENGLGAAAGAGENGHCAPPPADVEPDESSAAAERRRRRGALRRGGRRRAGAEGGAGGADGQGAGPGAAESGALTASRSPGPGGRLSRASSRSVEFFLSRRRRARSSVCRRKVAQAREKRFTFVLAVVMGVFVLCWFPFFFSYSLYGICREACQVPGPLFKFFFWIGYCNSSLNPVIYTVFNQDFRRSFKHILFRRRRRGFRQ
Description: as §1

[8] = target: T3, D(4) dopamine receptor (Homo sapiens, UniProt P21917)
T3 sequence (P21917 whole entry): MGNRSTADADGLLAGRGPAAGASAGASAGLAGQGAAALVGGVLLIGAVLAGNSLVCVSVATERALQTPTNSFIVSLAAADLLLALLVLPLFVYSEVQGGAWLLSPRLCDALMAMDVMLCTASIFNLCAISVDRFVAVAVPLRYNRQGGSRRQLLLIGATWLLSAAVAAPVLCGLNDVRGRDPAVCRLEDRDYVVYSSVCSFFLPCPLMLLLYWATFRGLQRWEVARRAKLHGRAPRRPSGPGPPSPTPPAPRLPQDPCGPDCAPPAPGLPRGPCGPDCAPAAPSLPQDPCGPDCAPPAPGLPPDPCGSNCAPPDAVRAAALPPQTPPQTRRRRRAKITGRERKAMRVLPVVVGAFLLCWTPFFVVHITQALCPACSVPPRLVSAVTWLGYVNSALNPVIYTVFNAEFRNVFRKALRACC
Description: as §1

[9] = target: Histamine H3 receptor (Homo sapiens, UniProt Q9Y5N1)
Sequence of Histamine H3 receptor (Q9Y5N1 whole entry): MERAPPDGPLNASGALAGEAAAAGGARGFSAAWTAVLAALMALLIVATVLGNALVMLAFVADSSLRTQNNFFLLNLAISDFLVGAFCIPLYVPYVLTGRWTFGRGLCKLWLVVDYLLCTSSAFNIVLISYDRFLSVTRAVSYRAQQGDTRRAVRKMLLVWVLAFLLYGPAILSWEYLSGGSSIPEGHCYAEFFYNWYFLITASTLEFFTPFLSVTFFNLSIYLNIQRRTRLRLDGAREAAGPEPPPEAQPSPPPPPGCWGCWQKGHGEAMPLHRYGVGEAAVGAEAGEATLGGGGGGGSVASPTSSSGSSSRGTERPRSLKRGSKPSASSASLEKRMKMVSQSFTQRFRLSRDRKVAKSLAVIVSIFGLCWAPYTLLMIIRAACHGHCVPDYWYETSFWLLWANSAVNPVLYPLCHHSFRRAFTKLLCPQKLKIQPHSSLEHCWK
Description: as §1

[10] = target: Sigma intracellular receptor 2 (Homo sapiens, UniProt Q5BJF2)
Sequence of Sigma intracellular receptor 2 (Q5BJF2 whole entry): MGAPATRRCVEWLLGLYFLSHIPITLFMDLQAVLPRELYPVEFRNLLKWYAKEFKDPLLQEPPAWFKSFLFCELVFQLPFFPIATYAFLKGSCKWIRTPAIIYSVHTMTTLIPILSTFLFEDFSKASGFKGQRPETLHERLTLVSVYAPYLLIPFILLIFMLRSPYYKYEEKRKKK
Description: as §1

[11] = target: Beta-2 adrenergic receptor (Homo sapiens, UniProt P07550)
Description: as §1

[12] = target: Muscarinic acetylcholine receptor M3 (Homo sapiens, UniProt P20309)
Sequence of Muscarinic acetylcholine receptor M3 (P20309 whole entry): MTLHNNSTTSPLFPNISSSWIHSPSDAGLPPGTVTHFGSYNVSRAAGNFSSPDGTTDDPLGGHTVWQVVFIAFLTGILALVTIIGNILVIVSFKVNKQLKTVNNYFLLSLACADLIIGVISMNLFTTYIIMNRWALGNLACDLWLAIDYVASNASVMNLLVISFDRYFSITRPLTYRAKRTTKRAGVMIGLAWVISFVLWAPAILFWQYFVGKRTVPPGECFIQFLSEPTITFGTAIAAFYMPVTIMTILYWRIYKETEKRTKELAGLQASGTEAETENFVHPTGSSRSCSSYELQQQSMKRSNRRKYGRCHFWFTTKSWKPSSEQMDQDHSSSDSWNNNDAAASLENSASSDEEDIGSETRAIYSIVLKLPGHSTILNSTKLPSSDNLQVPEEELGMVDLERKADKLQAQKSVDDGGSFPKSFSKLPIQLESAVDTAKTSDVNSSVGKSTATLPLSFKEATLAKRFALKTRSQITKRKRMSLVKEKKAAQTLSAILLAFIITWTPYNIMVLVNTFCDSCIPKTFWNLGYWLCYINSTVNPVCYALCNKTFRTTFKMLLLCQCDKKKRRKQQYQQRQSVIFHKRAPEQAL
Description: as §1

[13] = target: T4, Gamma-aminobutyric acid receptor subunit alpha-1/Adenosine receptor A1 (Homo sapiens, UniProt P14867+P30542)
T4 sequence (P30542 whole entry): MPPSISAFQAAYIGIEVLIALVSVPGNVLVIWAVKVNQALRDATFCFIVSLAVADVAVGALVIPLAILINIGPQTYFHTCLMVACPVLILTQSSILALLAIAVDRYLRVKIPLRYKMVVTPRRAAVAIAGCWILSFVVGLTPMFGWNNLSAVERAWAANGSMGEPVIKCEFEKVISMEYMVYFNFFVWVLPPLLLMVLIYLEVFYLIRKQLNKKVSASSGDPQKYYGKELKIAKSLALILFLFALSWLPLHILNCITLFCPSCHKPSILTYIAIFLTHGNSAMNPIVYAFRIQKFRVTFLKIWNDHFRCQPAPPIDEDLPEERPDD
T4 sequence (P14867 whole entry): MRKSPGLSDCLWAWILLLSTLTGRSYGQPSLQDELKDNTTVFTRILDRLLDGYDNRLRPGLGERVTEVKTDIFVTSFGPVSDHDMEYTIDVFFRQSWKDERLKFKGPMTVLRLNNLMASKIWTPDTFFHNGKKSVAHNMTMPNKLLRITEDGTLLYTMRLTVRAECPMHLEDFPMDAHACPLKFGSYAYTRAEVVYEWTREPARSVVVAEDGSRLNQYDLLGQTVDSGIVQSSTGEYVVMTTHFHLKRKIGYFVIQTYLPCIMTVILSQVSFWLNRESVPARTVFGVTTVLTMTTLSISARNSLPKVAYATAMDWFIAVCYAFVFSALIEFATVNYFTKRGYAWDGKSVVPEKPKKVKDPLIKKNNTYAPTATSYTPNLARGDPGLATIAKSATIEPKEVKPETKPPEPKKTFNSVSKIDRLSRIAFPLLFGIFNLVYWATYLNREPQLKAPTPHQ
Description: as §1

[14] = target: Voltage-dependent calcium channel subunit alpha-2/delta-1 (Homo sapiens, UniProt P54289)
Description: as §1

| Compound | Ki [1] [µM] | Ki [2] [µM] | Ki [3] [µM] | Ki [4] [µM] | Ki [5] [µM] | Ki [6] [nM] | Ki [7] [nM] | Ki [8] [µM] | Ki [9] [µM] | Ki [10] [µM] | Ki [11] [µM] | Ki [12] [nM] | Ki [13] [µM] | Ki [14] [µM] |
| --- | --- | --- | --- | --- | --- | --- | --- | --- | --- | --- | --- | --- | --- | --- |
| C[C@@H]1C[C@H](C)N1C(=O)C1C=C2c3cccc4[nH]cc(c34)C[C@H]2N(C)C1 (stereo partly drawn) [cis-2a] | > 10 | > 10 | 0.501 |  |  |  |  |  |  |  |  |  |  |  |
| CAS_82830-44-2::(2R)-1-(4-iodo-2,5-dimethoxyphenyl)propan-2-amine::DOI,(-)::US20250270173, Compound DOI |  |  | 1.76 | > 10 | 8.56 | 5770 | 601 | > 10 | > 10 | 9.17 | 0.139 | 1430 |  |  |
| COc1cc(OC)c(OC)cc1CC(C)N (stereo not drawn) [(+/-)1-Methyl-2-(2,4,5-trimethoxy-phenyl)-ethylamine] |  |  | 1.41 |  |  | > 10000 | > 10000 | > 10 | > 10 |  | > 10 |  |  |  |
| CC(N)Cc1ccc2c(c1)OCO2 (stereo not given) |  |  |  | > 10 |  | 3550 | 229 | > 10 | > 10 |  | > 10 |  | > 10 |  |
| CC[C@H]1C[C@@H]2C[C@H]3c4[nH]c5ccc(OC)cc5c4CCN(C2)[C@@H]13 |  |  | > 10 |  | 5.84 |  |  | > 10 |  | 0.206 |  | 12500 |  |  |
| CCc1cc(OC)c(CC(C)N)cc1OC (stereo not given) |  |  | > 10 | > 10 | 9.78 | 1230 | 1450 | > 10 | > 10 | 9.56 |  |  |  |  |
| COc1cc(CC(C)N)cc(OC)c1OC (stereo not given) |  |  | > 10 | > 10 | 0.536 | 749 | 5010 | > 10 | > 10 | 0.536 | > 10 |  |  |  |
| NCCc1c2c(c(Br)c3c1OCC3)OCC2 [2-(8-Bromo-2,3,6,7-tetrahydro-benzo[1,2-b;4,5-b']difuran-4-yl)-ethylamine] |  |  | 5.75 | > 10 | > 10 |  | 233 | > 10 | > 10 | > 10 | > 10 | 339 |  |  |
| CCc1cc(OC)c(CCN)cc1OC [2-(2,5-dimethoxy-4-ethylphenyl)ethylamine] | > 10 | > 10 | > 10 | > 10 |  | 426 | 90.2 | > 10 | > 10 | > 10 |  | 2560 | > 10 | > 10 |
| CCc1[nH]c2ccc(OC)cc2c1CCN(C)C [2-ethyl-5-methoxy-N,N-dimethyltryptamine] | > 10 | > 10 | > 10 |  |  |  |  | > 10 | > 10 |  |  | > 10000 |  |  |
